ChEMBL document CHEMBL4138079, “New cycloartane type-triterpenoids from the areal parts of Caragana sukiensis and their biological activities” (Eur J Med Chem, 2017)

Legend:
HeLa = experiment: Cytotoxicity against human HeLa cells assessed as reduction in cell viability after 48 hrs by MTT assay; type: functional, cell-based
A549 = experiment: Cytotoxicity against human A549 cells assessed as reduction in cell viability after 48 hrs by MTT assay; type: functional, cell-based; conditions: A549, 48 h
MCF7 = experiment: Cytotoxicity against human MCF7 cells assessed as reduction in cell viability after 48 hrs by MTT assay; type: functional, cell-based; conditions: MCF7, 48 h
DU-145 = experiment: Cytotoxicity against human DU145 cells assessed as reduction in cell viability after 48 hrs by MTT assay; type: functional, cell-based; conditions: DU-145, 48 h
HEK293 = experiment: Cytotoxicity against human HEK293 cells assessed as reduction in cell viability after 48 hrs by MTT assay; type: cell-based; conditions: HEK293, 48 h
Spodoptera litura [1] = experiment: Antifeedant activity in Spodoptera litura third-instar larvae assessed as increase in feeding deterrence by measuring antifeedant index at 5 ug/cm2 after 24 hrs by leaf disk method; type: functional
Spodoptera litura [2] = experiment: Antifeedant activity in Spodoptera litura third-instar larvae assessed as increase in feeding deterrence after 24 hrs by leaf disk method; type: functional
Spodoptera litura [3] = experiment: Insecticidal activity in Spodoptera litura third-instar larvae assessed as larval mortality at 5 ug/cm2 after 24 hrs by leaf disk method relative to control; type: functional; conditions: foliar
Spodoptera litura [4] = experiment: Antifeedant activity in Spodoptera litura third-instar larvae assessed as larval duration time after 24 hrs by leaf disk method (reference value: 10.1 +/- 0.1 day); type: functional
Spodoptera litura [5] = experiment: Antifeedant activity in Spodoptera litura assessed as pupal weight after 24 hrs by leaf disk method (reference value: 0.245 +/- 0.02 g); type: functional
Spodoptera litura [6] = experiment: Antifeedant activity in Spodoptera litura assessed as pupal mortality after 24 hrs by leaf disk method (reference value: 0%); type: functional
Spodoptera litura [7] = experiment: Toxicity in Spodoptera litura third-instar larvae assessed as increase in larval mortality after 24 hrs by leaf disk method; type: organism-based; conditions: in vivo
Spodoptera litura [8] = experiment: Antifeedant activity in Spodoptera litura third-instar larvae assessed as increase in feeding deterrence by measuring antifeedant index at 2.8 ug/cm2 after 24 hrs by leaf disk method; type: functional
Spodoptera litura [9] = experiment: Insecticidal activity in Spodoptera litura third-instar larvae assessed as increase in larval mortality at 2.8 ug/cm2 after 24 hrs by leaf disk method relative to control; type: functional; conditions: foliar

SMILES: C[C@@H]1C[C@H]([C@H](O)C(C)(C)O)O[C@H]2O[C@H](O)[C@@]3(C)[C@@H]4CC[C@H]5C(C)(C)C(=O)CC[C@@]56C[C@@]46CC[C@]3(C)[C@H]21
- IC50 (HeLa): 55.3 µM
- IC50 (A549): 36.7 µM
- IC50 (MCF7): 38.9 µM
- IC50 (DU-145): 53.7 µM
- IC50 (HEK293): 167 µM
- Activity_index (Spodoptera litura [1]): 56.4
- ED50 (Spodoptera litura [2]): 1.195 microg/cm2
- mortality at 5 µg/cm2 (Spodoptera litura [3]): 11.5%
- Time (Spodoptera litura [4]): 12.6 days
- Activity (Spodoptera litura [5]): 0.221 g
- mortality (Spodoptera litura [6]): 88.5%

SMILES: C[C@@H]1C[C@H]([C@H](O)C(C)(C)O)O[C@H]2O[C@H](O)[C@@]3(C)[C@@H]4CC[C@H]5C(C)(C)[C@@H](O[C@@H]6OC[C@@H](O)[C@H](O)[C@H]6O)CC[C@@]56C[C@@]46CC[C@]3(C)[C@H]21
- IC50 (HeLa): 57 µM
- IC50 (A549): 37.5 µM
- IC50 (MCF7): 43.2 µM
- IC50 (DU-145): 59.2 µM
- IC50 (HEK293): 79.2 µM
- Activity_index (Spodoptera litura [1]): 59.3
- ED50 (Spodoptera litura [2]): 3.61 microg/cm2
- mortality at 5 µg/cm2 (Spodoptera litura [3]): 19.4%
- Time (Spodoptera litura [4]): 11.8 days
- Activity (Spodoptera litura [5]): 0.264 g
- mortality (Spodoptera litura [6]): 92.4%

SMILES: CC1(C)C[C@@H](O)[C@]2(C)CC[C@]3(C)C(=CC[C@@H]4[C@@]5(C)CC[C@H](O)[C@](C)(CO)[C@@H]5CC[C@]43C)[C@@H]2C1 [SOYASAPOGENOL B]
- IC50 (HeLa): 3.49 µM
- IC50 (A549): 2.1 µM
- IC50 (MCF7): 2.33 µM
- IC50 (DU-145): 10.9 µM
- IC50 (HEK293): 124 µM
- Activity_index (Spodoptera litura [1]): 68.1
- ED50 (Spodoptera litura [2]): 5.22 microg/cm2
- mortality at 5 µg/cm2 (Spodoptera litura [3]): 11.6%
- Time (Spodoptera litura [4]): 12.1 days
- Activity (Spodoptera litura [5]): 0.251 g
- mortality (Spodoptera litura [6]): 96.7%

SMILES: C[C@@H]1C[C@H]([C@H](O)C(C)(C)O)O[C@H]2O[C@H](O)[C@@]3(C)[C@@H]4CC[C@H]5C(C)(C)[C@@H](O)CC[C@@]56C[C@@]46CC[C@]3(C)[C@H]21
- IC50 (HeLa): 63.8 µM
- IC50 (A549): 51.1 µM
- IC50 (MCF7): 58.2 µM
- IC50 (DU-145): 62.1 µM
- IC50 (HEK293): 123 µM
- Activity_index (Spodoptera litura [1]): 91.8
- ED50 (Spodoptera litura [2]): 0.59 microg/cm2
- mortality at 5 µg/cm2 (Spodoptera litura [3]): 86.7%
- LD50 (Spodoptera litura [7]): 0.84 microg/cm2

SMILES: COc1cccc2c1C(=O)c1c(O)c3c(c(O)c1C2=O)C[C@@](O)(C(=O)CO)C[C@@H]3O[C@H]1C[C@H](N)[C@H](O)[C@H](C)O1 [DOXORUBICIN]
- IC50 (HeLa): 1.09 µM
- IC50 (A549): 1.95 µM
- IC50 (DU-145): 1.62 µM

SMILES: C[C@@H]1C[C@H]([C@H](O)C(C)(C)O)O[C@H]2OC(=O)[C@@]3(C)[C@@H]4CC[C@H]5C(C)(C)C(=O)C=C[C@@]56C[C@@]46CC[C@]3(C)[C@H]21
- IC50 (HeLa): 63.3 µM
- IC50 (A549): 29.4 µM
- IC50 (MCF7): 27.2 µM
- IC50 (DU-145): 36.1 µM
- IC50 (HEK293): 158 µM
- Activity_index (Spodoptera litura [1]): 61.2
- ED50 (Spodoptera litura [2]): 12.239 microg/cm2
- mortality at 5 µg/cm2 (Spodoptera litura [3]): 11.3%
- Time (Spodoptera litura [4]): 11.9 days
- Activity (Spodoptera litura [5]): 0.226 g
- mortality (Spodoptera litura [6]): 91.3%

SMILES: CC1(C)C[C@@H](O)[C@]2(C)CC[C@]3(C)C(=CC[C@@H]4[C@@]5(C)CCC(=O)[C@](C)(CO)[C@@H]5CC[C@]43C)[C@@H]2C1
- IC50 (HeLa): 18.6 µM
- IC50 (A549): 21.2 µM
- IC50 (MCF7): 28.7 µM
- IC50 (DU-145): 26 µM
- IC50 (HEK293): 95.6 µM
- Activity_index (Spodoptera litura [1]): 21.8
- mortality at 5 µg/cm2 (Spodoptera litura [3]): 0%
- Time (Spodoptera litura [4]): 11.1 days
- Activity (Spodoptera litura [5]): 0.249 g
- mortality (Spodoptera litura [6]): 11.2%

SMILES: CC(C)(O)[C@@H]1CC[C@](C)([C@H]2[C@@H](O)C[C@@]3(C)[C@@H]4C[C@H](O)[C@H]5C(C)(C)[C@@H](O[C@@H]6OC[C@@H](O)[C@H](O)[C@H]6O)CC[C@@]56C[C@@]46CC[C@]23C)O1
- IC50 (HeLa): 17.4 µM
- IC50 (A549): 29 µM
- IC50 (MCF7): 31.2 µM
- IC50 (DU-145): 19.6 µM
- IC50 (HEK293): 99.4 µM
- Activity_index (Spodoptera litura [1]): 70.1
- ED50 (Spodoptera litura [2]): 15.05 microg/cm2
- mortality at 5 µg/cm2 (Spodoptera litura [3]): 18.2%
- Time (Spodoptera litura [4]): 13.4 days
- Activity (Spodoptera litura [5]): 0.212 g
- mortality (Spodoptera litura [6]): 90.9%

SMILES: C[C@@H]1C[C@H]([C@H](O)C(C)(C)O)O[C@H]2OC(=O)[C@@]3(C)[C@@H]4CC[C@H]5C(C)(C)C(=O)CC[C@@]56C[C@@]46CC[C@]3(C)[C@H]21
- IC50 (HeLa): 17.8 µM
- IC50 (A549): 16.3 µM
- IC50 (MCF7): 24.8 µM
- IC50 (DU-145): 22.4 µM
- IC50 (HEK293): 79.3 µM
- Activity_index (Spodoptera litura [1]): 93.6
- ED50 (Spodoptera litura [2]): 0.67 microg/cm2
- mortality at 5 µg/cm2 (Spodoptera litura [3]): 94.6%
- LD50 (Spodoptera litura [7]): 0.91 microg/cm2

SMILES: C/C=C(\C)C(=O)O[C@H]1C[C@@H](OC(C)=O)[C@@]2(C(=O)OC)CO[C@H]3[C@@H](O)[C@@](C)([C@]45O[C@@]4(C)[C@H]4C[C@@H]5O[C@@H]5OC=C[C@@]54O)[C@H]4[C@]1(CO[C@]4(O)C(=O)OC)[C@@H]32 [AZADIRACTIN]
- Activity_index (Spodoptera litura [8]): 99.1
- ED50 (Spodoptera litura [2]): 1.8 microg/cm2
- mortality at 2.8 µg/cm2 (Spodoptera litura [9]): 100%
- LD50 (Spodoptera litura [7]): 0.84 microg/cm2

SMILES: CC1(C)CC[C@]2(C)CC[C@]3(C)C(=CC[C@@H]4[C@@]5(C)CC[C@H](O)C(C)(C)[C@@H]5CC[C@]43C)[C@@H]2C1 [beta-AMYRIN]
- IC50 (HeLa): 27.9 µM
- IC50 (A549): 23.6 µM
- IC50 (MCF7): 35.3 µM
- IC50 (DU-145): 27.9 µM
- IC50 (HEK293): 94.4 µM
- Activity_index (Spodoptera litura [1]): 59.4
- ED50 (Spodoptera litura [2]): 28.69 microg/cm2
- mortality at 5 µg/cm2 (Spodoptera litura [3]): 10.9%
- Time (Spodoptera litura [4]): 11.5 days
- Activity (Spodoptera litura [5]): 0.232 g
- mortality (Spodoptera litura [6]): 89.9%

SMILES: CC(=O)O[C@H]1[C@H](O[C@H]2CC[C@]34C[C@]35CC[C@]3(C)[C@@H]([C@@]6(C)CC[C@@H](C(C)(C)O)O6)[C@@H](O)C[C@@]3(C)[C@@H]5C[C@H](O)[C@H]4C2(C)C)OC[C@@H](O)[C@@H]1O
- IC50 (HeLa): 9.71 µM
- IC50 (A549): 2.24 µM
- IC50 (MCF7): 2.93 µM
- IC50 (DU-145): 11.3 µM
- IC50 (HEK293): 121 µM
- Activity_index (Spodoptera litura [1]): 64.1
- ED50 (Spodoptera litura [2]): 1.689 microg/cm2
- mortality at 5 µg/cm2 (Spodoptera litura [3]): 19.3%
- Time (Spodoptera litura [4]): 13.4 days
- Activity (Spodoptera litura [5]): 0.219 g
- mortality (Spodoptera litura [6]): 90.1%
